Data published in publication PMC5012620, “Blocking the Interactions between Calcium-Bound S100A12 Protein and the V Domain of RAGE Using Tranilast” (PLoS ONE, 2016).
Values belong to the molecule of their own block, whether it stands above or below them.

What was measured:
S100A12 = target: T1, S100A12 (Homo sapiens, UniProt P80511); test: fluorescence titration (tranilast emission, excitation […] nm); 1H-15N HSQC NMR titration; type: binding
T1 sequence (P80511 2-92): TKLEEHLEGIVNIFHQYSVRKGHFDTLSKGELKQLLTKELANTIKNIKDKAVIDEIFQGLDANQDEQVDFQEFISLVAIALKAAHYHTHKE

RAGE V domain V domain = target: T2, RAGE V domain V domain (Homo sapiens, UniProt Q15109); test: fluorescence titration (Trp)
T2 chain: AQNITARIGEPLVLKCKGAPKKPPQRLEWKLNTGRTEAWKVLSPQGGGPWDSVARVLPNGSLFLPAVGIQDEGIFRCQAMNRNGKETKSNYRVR

Kd (S100A12): 6.1 ± 1.4 µM
Molecule: COc1ccc(/C=C/C(=O)Nc2ccccc2C(=O)O)cc1OC [tranilast]

Kd (RAGE V domain V domain): ~3.1 µM
B1: S100A12 (protein)
chain: T1 sequence (P80511 2-92)
modifications: Ca2+
